{
  "source": "patent US20190311703A1",
  "about": "“ACOUSTIC TRAUMA SYSTEM FOR LARVAL FISH” (WASHINGTON STATE UNIVERSITY, priority 2018, published 2019)",
  "key": {"cochlear hair cells [1]": {"system": "cochlear hair cells", "conditions": "mice; cited from earlier work"}, "lateral line hair cells": {"system": "lateral line hair cells", "assay": "Cavitation (acoustic trauma)-induced lateral line hair cell damage in larval zebrafish, hair cell survival assessment", "assay_type": "in vivo", "conditions": "for protection from cavitation-induced hair cell damage (hair cell survival score vs DMSO control): blinded mini-screen of select redox library compounds, FIG. 12B", "procedure": "At 5 days post-fertilization (dpf), fish were fed a light dusting of GEMMA micro 75 while in petri dishes. All noise exposure experiments were conducted at 6 dpf. Larval zebrafish were placed into wells A2-A5 and D2-D5 of a modified 24-well plate (3 fish per well) containing fish water and suspended atop 22 cm of water within the container 2 (stainless-steel canister) with the bottom of the 1 cm of the well plate 5 submerged (as generally shown in FIG. 1). While the well plate is disclosed often with the bottom of the plate being submerged, it is also to be understood that the entire well plate may be submerged without departing from the scope of the invention. Fish were exposed to cavitation for periods ranging from 20 to 120 minutes.\nImmediately following cavitation fish were transferred to a 6-well plate 5 (6 fish per well) and kept in the fish facility on a 14 h light/10 h dark cycle for up to 5 post-exposure days. Each post-exposure morning (9-10 am) 50% of fish water was exchanged with fresh fish water and fish were lightly dusted with GEMMA food. Each post-exposure day evening (5-6 pm) fish were transferred to a fresh 6-well plate with completely fresh fish water.\nSurvival of lateral line hair cells was assessed by vital dye labeling in live fish and direct hair cells counts in live and fixed animals. The vital dye 2-(4-(dimethylamino)styryl)-N-ethylpyridinium iodide (DASPEI) is a marker of mitochondria membrane potential and stains lateral line hair cells. Fish were incubated in 0.005% DASPEI for 15 min, then rinsed twice with fish water and anesthetized with 0.001% MS-222. Using a Leica M165FC fluorescence dissection scope, 10 anterior neuromasts (IO1, IO2, IO3, IO4, M2, MI1, MI2, O2, SO1, and SO2) per fish were assessed based on fluorescent intensity. An intensity score of 2 signifies bright neuromast fluorescence, an intermediate score of 1 represents dim DASPEI labeling, while a 0 neuromast score equates to no neuromast fluorescence at a given neuromast's stereotyped position. The scores from 10 neuromasts per fish were summed such that each fish receives a score between 0 (no neuromast fluorescence) and 20 (full complement of hair cells in all 10 neuromasts).\nAll inhibitors (to test roles of cell death (including apoptosis, pyroptosis and necroptosis) and inflammation, were added to 6-well plates immediately after cavitation-exposed fish were removed from the device. Inhibitors were refreshed during the same intervals as fish water (twice daily) until the end of the desired exposure window. To test the role of protein synthesis, fish were pulse treated immediately after acoustic trauma for 4 h with the protein synthesis inhibitor cycloheximide (C7698; Sigma Aldrich). In separate experiments, acoustic trauma-exposed fish were continuously treated with either the pan caspase inhibitor Z-VAD-FMK ([…]; Sigma Aldrich) or the antioxidant D-methionine (F7111; UBPBio) to assess the contribution of caspase activation and ROS overproduction, respectively, in the acoustically stimulated lateral line. A small blinded screen was also conducted of select compounds from a larger redox library (BML-2835-0100; Enzo Life Sciences). Compounds chosen had either known protective effects in mammalian models of NIHL (as proof-of concept) or had not been previously tested against NIHL (to identify new protective molecules)."}, "cochlear hair cells [2]": {"system": "cochlear hair cells", "conditions": "guinea pigs; cited from earlier work"}, "[3]": {"conditions": "cited from earlier work"}, "hair cells": {"system": "hair cells", "conditions": "intracochlear perfusion, guinea pigs; cited from earlier work"}},
  "note": "Entries after “also recorded” stand apart in the source; their conditions may differ. Where two headings read alike, the source gives them in different places. Where a SMILES comes first, the peptide text is derived from it. The star is where a group is joined. Cbz = O=C(OCc1ccccc1)*; CH2F = FC*",
  "data": [
    {"molecule": "CSCC[C@@H](N)C(=O)O", "note": "[D-methionine]", "values": [
      {"measurement": "protection of cochlear hair cells from acoustic trauma", "setting": "cochlear hair cells [1]", "result": "protects cochlear hair cells"},
      {"measurement": "protection from cavitation-induced hair cell damage (hair cell survival)", "setting": "lateral line hair cells; 100 μM, FIG. 12A", "result": "protected lateral line hair cells from cavitation damage"},
      {"measurement": "protection from cavitation-induced hair cell damage (hair cell survival)", "setting": "lateral line hair cells; 500 μM, FIG. 12A", "result": "protected lateral line hair cells from cavitation damage"},
      {"measurement": "protection from cavitation-induced hair cell damage (hair cell survival)", "setting": "lateral line hair cells; 72 hour treatment, concentration not stated at place, FIG. 12A", "result": "protects lateral line hair cells from cavitation"},
      {"measurement": "protection from cavitation-induced hair cell damage (hair cell survival)", "setting": "lateral line hair cells; 72 hour treatment, concentration not stated at place, FIG. 12A, listed as D-Methionine", "result": "robustly protects lateral line hair cells from cavitation"},
      {"measurement": "protection of cochlear hair cells from acoustic trauma", "setting": "cochlear hair cells [2]", "result": "protects cochlear hair cells"}
    ]},
    {"molecule": "CC(=O)N[C@@H](CS)C(=O)O", "note": "[N-acetylcysteine]", "values": [
      {"measurement": "prevention of NIHL, clinical trial outcome", "setting": "[3]", "result": "failed to meet clinical endpoints"}
    ]},
    {"molecule": "COC(=O)C[C@H](NC(=O)[C@H](C)NC(=O)[C@@H](NC(=O)OCc1ccccc1)C(C)C)C(=O)CF", "note": "[Z-VAD, Z-VAD-FMK] (Cbz-Val-Ala-Asp(OMe)-CH2F)", "values": [
      {"measurement": "hair cell loss following blast noise trauma", "setting": "hair cells", "result": "reduces hair cell loss"},
      {"measurement": "protection from cavitation-induced hair cell damage (hair cell survival)", "setting": "lateral line hair cells; 1 μM, treatment for entire 72-hour post-exposure window, FIG. 11B", "result": "significantly reduced cavitation-induced hair cell damage"},
      {"measurement": "protection from cavitation-induced hair cell damage (hair cell survival)", "setting": "lateral line hair cells; 72-h treatment starting immediately after acoustic stimulation, concentration not stated, FIG. 11B", "result": "reduced cavitation-induced lateral line hair cell damage; also recorded: robustly protects hair cells from damage"}
    ]},
    {"molecule": "O=c1cc(-c2ccccc2)oc2cc(O)c(O)c(O)c12", "note": "[baicalein]", "values": [
      {"measurement": "protection from cavitation-induced hair cell damage (hair cell survival score vs DMSO control)", "setting": "lateral line hair cells", "result": "significantly protected lateral line hair cells from cavitation-induced hair cell damage"}
    ]},
    {"molecule": "CCCCS(=N)(=O)CCC(N)C(=O)O", "note": "(centres unmarked) [buthionine sulfoximine]", "values": [
      {"measurement": "protection from cavitation-induced hair cell damage (hair cell survival score vs DMSO control)", "setting": "lateral line hair cells", "result": "did not confer protection"}
    ]},
    {"molecule": "C[C@@H]1C[C@@H]([C@H](O)CC2CC(=O)NC(=O)C2)C(=O)[C@@H](C)C1", "note": "[cycloheximide]", "values": [
      {"measurement": "protection from cavitation-induced hair cell damage (hair cell survival)", "setting": "lateral line hair cells; 4 h pulse treatment immediately after acoustic stimulation, assessed 72 h post-exposure, FIG. 11A", "result": "prevented hair cell loss; also recorded: reduces hair cell damage"},
      {"measurement": "protection from cavitation-induced hair cell damage (hair cell survival)", "setting": "lateral line hair cells; 4 h pulse treatment immediately after acoustic stimulation, assessed 72 h post-exposure, FIG. 11A, listed as Cycloheximide", "result": "protected lateral line hair cells from cavitation in a dose-dependent manner"}
    ]},
    {"molecule": "CC1=C(C)C(=O)C(CC[C@](C)(O)CCC[C@H](C)CCC[C@H](C)CCCC(C)C)=C(C)C1=O", "note": "[d-α-tocopherylquinone]", "values": [
      {"measurement": "protection from cavitation-induced hair cell damage (hair cell survival score vs DMSO control)", "setting": "lateral line hair cells", "result": "significantly protected lateral line hair cells from cavitation-induced hair cell damage"}
    ]},
    {"molecule": "CCOC(=O)/C=C/c1ccc(O)c(OC)c1", "note": "[ferulic acid ethylester]", "values": [
      {"measurement": "protection from cavitation-induced hair cell damage (hair cell survival score vs DMSO control)", "setting": "lateral line hair cells", "result": "significantly protected lateral line hair cells from cavitation-induced hair cell damage"}
    ]},
    {"molecule": "N[C@@H](CCC(=O)N[C@@H](CS)C(=O)NCC(=O)O)C(=O)O", "note": "[glutathione]", "values": [
      {"measurement": "protection from cavitation-induced hair cell damage (hair cell survival score vs DMSO control)", "setting": "lateral line hair cells", "result": "significantly protected lateral line hair cells from cavitation-induced hair cell damage"}
    ]}
  ]
}
